# Laboratory results taken from patent US4468469A, “Substituted phenylacetic acids and salts as TBP blocking agents in iodothyronine immunoassays” (Miles Laboratories, Inc., priority 1982, dated 1984).
# What was measured:
# [1] = tested on: serum proteins (thyroxine binding protein, TBP); experiment: Dissociation of thyroxine from human serum, first experiment (Sephadex LH-20 column, pH 6.5)
# Description: Approximately 3 milliliters (ml) of human serum was allowed to equilibrate with radioactive iodine-labeled thyroxine (^125 I-thyroxine obtained from Amersham-Searle, Arlington Heights, Ill., USA) for about 8 hours.
# Then 100 microliter (μl) aliquots of this serum were combined with 300 μl aliquots of 0.1 molar (M) sodium phosphate buffer, pH 6.5, containing various concentrations of fenclofenac (British Pat. No. 1,308,327; example 6). Then 180 μl aliquots of each of these mixtures were applied to 2 ml columns of Sephadex LH-20 (Pharmacia Fine Chemicals, Piscataway, N.J. USA) equilibrated with 0.1M sodium phosphate buffer, pH 6.5. The radioactivity on the columns was measured and the columns were washed with 5 ml of the buffer. The radioactivity of each column was measured again and the results (shown below in Table 1) used as estimates of thyroxine dissociated from serum proteins.
# [2] = tested on: serum proteins (thyroxine binding protein, TBP); experiment: Dissociation of thyroxine from human serum, second experiment (Seralute Sephadex column, pH 7.0); conditions: for release and block the binding of protein-bound iodothyronine: summary of both experiments of Example I; for Percent Dissociated: pH 7.0, 5 min
# Description: (§1) Radioactive iodine labeled thyroxine (^125 I-thyroxine obtained from Amersham-Searle, Arlington Heights, IL, USA) was equilibrated with 5 ml of normal human serum for 48 hours at 4° C. […] After 5 minutes of incubation at room temperature, a 165 μl aliquot was applied to a Sephadex® column from a Seralute® thyroxine assay kit (Miles Laboratories, Inc., Ames Division, Elkhart, IN, USA), which had been equilibrated with 0.1M sodium phosphate, pH 7.0. The total radioactivity applied to the columns was measured and the undissociated material was washed through the column with 3 ml of buffer. The columns were counted to determine the percentage of thyroxine dissociated from the serum proteins.
# antibody to thyroxine = experiment: Effect on the binding of 125I-thyroxine with antibody (polyethyleneglycol precipitation); conditions: for Percent 125I-Thyroxine in Precipitate: percent of radioactivity without fenclofenac, 180 min
# Description: A series of antibody binding reactions were set up in 0.1M sodium phosphate buffer, pH 6.5, to give final volumes of 0.6 ml containing various concentrations of fenclofenac. Each reaction contained ^125 I-thyroxine, 20 μl of normal rabbit immunoglobulin, and 2 μl of antibody to thyroxine. The mixtures were incubated at room temperature for about 3 hours and then 400 μl of 50% (w/v) polyethyleneglycol was added. The precipitated proteins were collected by centrifugation and the radioactivity in each precipitate was measured. The results are shown in Table 2 as percent of the radioactivity in the precipitate without fenclofenac.
# apoglucose oxidase = apoglucose oxidase (Aspergillus niger, UniProt P13006); experiment: Activation of apoglucose oxidase by FAD-theophylline conjugate (fenclofenac); format: biochemical; conditions: 5 min, 37° C., read-out: Percent Apoglucose Oxidase Activity
# Description: A series of apoenzyme reactivation measurements were set up with different concentrations of fenclofenac. The assays were performed at 37° C. and the final reagent concentrations in 0.1M phosphate buffer, pH 7.0, were 1.0 nanomolar (nM) FAD-labeled conjugate (an FAD-theophylline conjugate as described in U.S. Pat. No. 4,238,565), 50 nM apoglucose oxidase (U.S. Pat. No. 4,268,631), 2.5 μl/ml anti(glucose oxidase) antiserum, 2 mM sodium dichlorohydroxybenzene sulfonate (DHSA), 0.2 mM 4-aminoantipyrine, 0.1M glucose, 20 μg/ml peroxidase, and 0.1% (w/v) bovine serum albumin. The apoenzyme and anti(glucose oxidase) were preincubated and the reaction then started by simultaneously mixing in the other reagents. The reaction mixtures were incubated for 5 minutes and then absorbance at 520 nm read. The results shown in Table 4 relate fenclofenac concentration to the generation of active glucose oxidase.
# dihydrofolate reductase = experiment: Effect on the activity of dihydrofolate reductase; format: biochemical; conditions: for Absorbance Change Over 10 Minutes: 560 nm, 37° C.
# Description: Assay mixtures were prepared to contain various concentrations of fenclofenac and, in a 1 ml final volume at 37° C., 0.3 mM thiazoyl blue, […] dihydrofolate, 0.5 mM NADPH, and 0.012 Units/ml of dihydrofolate reductase. The absorbance of each reaction mixture at 560 nm was read over a 10 minute incubation period at 37° C.
# [3] = tested on: anti(thyroxine) antiserum / apoglucose oxidase; experiment: Apoenzyme reactivation immunoassay system for serum thyroxine; format: biochemical; conditions: 2 mM sodium salt of dissociating agent in buffer
# Description: Standard curves for serum thyroxine were generated using a semiautomated assay protocol on the Gilford Clinical Chemistry Analyzer System 203-S (Gilford Instrument Laboratories, Oberline, OH, USA). […] The FAD-thyroxine conjugate (40 nM in 0.1M sodium phosphate, pH 7.0, 0.01% Triton X-100) as a 0.05 ml aliquot was added to the reaction cup and allowed to equilibrate for 30 seconds. The reaction was initiated by addition of 0.10 ml 1.0 μM apoglucose oxidase, 2 mM 4-aminoantipyrine, 12% glycerol, 80 mM sodium phosphate, pH 7.0. The absorbance at 520 nm was recorded after an 8 minute incubation.
# [4] = tested on: serum proteins (thyroxine binding protein, TBP); experiment: Effect of pH on the dissociation of iodothyronine from serum proteins; parameters: species or system human; conditions: for Percent Dissociated: dissociating agent 2.0 mM
# Description: as §1
# Using the column procedure described in the second study in Example 1, the pH of the 0.1M sodium phosphate was varied and the concentration of the dissociating agent held constant at 2.0 mM. The columns were equilibrated with buffer containing the dissociating agent at the given pH and 165 μl of the serum diluted in buffer at the given pH (as described above) was applied to the column. The total counts were measured and then the columns were washed with buffer at the given pH. The counts remaining on the column represent the percentage of iodothyronine dissociated.
# apoglucose oxidase, sequence (P13006 17-605): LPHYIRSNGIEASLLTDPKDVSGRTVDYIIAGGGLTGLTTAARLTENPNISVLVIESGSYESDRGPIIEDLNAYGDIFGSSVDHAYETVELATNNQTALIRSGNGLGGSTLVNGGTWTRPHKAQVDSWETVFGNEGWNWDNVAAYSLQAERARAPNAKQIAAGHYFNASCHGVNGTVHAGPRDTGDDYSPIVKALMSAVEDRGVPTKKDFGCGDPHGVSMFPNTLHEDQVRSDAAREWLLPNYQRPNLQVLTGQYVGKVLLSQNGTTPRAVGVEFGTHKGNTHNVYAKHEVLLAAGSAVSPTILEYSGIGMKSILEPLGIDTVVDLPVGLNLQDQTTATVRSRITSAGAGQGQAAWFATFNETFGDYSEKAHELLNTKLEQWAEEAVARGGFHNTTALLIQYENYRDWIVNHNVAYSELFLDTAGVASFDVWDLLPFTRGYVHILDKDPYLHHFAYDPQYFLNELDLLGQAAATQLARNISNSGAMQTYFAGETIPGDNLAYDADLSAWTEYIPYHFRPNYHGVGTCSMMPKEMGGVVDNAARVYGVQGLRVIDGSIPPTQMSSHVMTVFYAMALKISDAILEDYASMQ
structure (smiles),measurement,setting,value
"O=C(O)Cc1ccccc1Oc1ccc(Cl)cc1Cl [Fenclofenac, 2-(2,4-dichlorophenoxy)phenylacetic acid]",Percent Thyroxine Dissociated,[1]; 0.25 mM fenclofenac,50%
same,Percent Thyroxine Dissociated,[1]; 0.50 mM fenclofenac,72%
same,Percent Thyroxine Dissociated,[1]; 1.0 mM fenclofenac,79%
same,Percent Thyroxine Dissociated,[1]; 2.0 mM fenclofenac,98%
same,Percent Thyroxine Dissociated,[1]; 5.0 mM fenclofenac,100%
same,release and block the binding of protein-bound iodothyronine,[2]; 0.25 mM in immunoassay reaction mixture,40-50%
same,release and block the binding of protein-bound iodothyronine,[2]; 0.50 mM in immunoassay reaction mixture,60-70%
same,Percent Dissociated,[2]; dissociating agent 0.25 mM,40%
same,Percent Dissociated,[2]; dissociating agent 0.50 mM,61%
same,Percent Dissociated,[2]; dissociating agent 1.00 mM,71%
same,Percent Dissociated,[2]; dissociating agent 2.00 mM,75%
same,Percent Dissociated,[2]; dissociating agent 4.00 mM,79%
same,Percent Dissociated,[2]; dissociating agent 8.00 mM,81%
same,Percent 125I-Thyroxine in Precipitate,antibody to thyroxine; 0.2 mM fenclofenac,97%
same,Percent 125I-Thyroxine in Precipitate,antibody to thyroxine; 0.5 mM fenclofenac,80%
same,Percent 125I-Thyroxine in Precipitate,antibody to thyroxine; 1.0 mM fenclofenac,69%
same,Percent 125I-Thyroxine in Precipitate,antibody to thyroxine; 2.5 mM fenclofenac,61%
same,Percent 125I-Thyroxine in Precipitate,antibody to thyroxine; 5.0 mM fenclofenac,43%
same,inhibition of the antibody binding reaction,antibody to thyroxine; concentrations below about 2.5 mM,about 40%
same,inhibition of the antibody binding reaction,antibody to thyroxine; concentrations below about 5 mM,about 50%
same,activity at 500 µM,"apoglucose oxidase; pH 7, 0.5 mM fenclofenac",81%
same,activity at 1000 µM,"apoglucose oxidase; pH 7, 1.0 mM fenclofenac",66%
same,activity at 1500 µM,"apoglucose oxidase; pH 7, 1.5 mM fenclofenac",61%
same,activity at 2000 µM,"apoglucose oxidase; pH 7, 2.0 mM fenclofenac",64%
same,activity at 2500 µM,"apoglucose oxidase; pH 7, 2.5 mM fenclofenac",47%
same,Absorbance Change Over 10 Minutes,dihydrofolate reductase; 0.1 mM fenclofenac,0.359
same,Absorbance Change Over 10 Minutes,dihydrofolate reductase; 0.2 mM fenclofenac,0.365
same,Absorbance Change Over 10 Minutes,dihydrofolate reductase; 0.5 mM fenclofenac,0.355
same,Absorbance Change Over 10 Minutes,dihydrofolate reductase; 1.0 mM fenclofenac,0.332
same,Absorbance Change Over 10 Minutes,dihydrofolate reductase; 2.5 mM fenclofenac,0.273
same,Absorbance Change Over 10 Minutes,dihydrofolate reductase; 5.0 mM fenclofenac,0.118
same,inhibition of enzyme activity (dihydrofolate reductase),dihydrofolate reductase; concentrations below 1.0 mM,did not give substantial inhibition
same,Absorbance (520 nm),[3]; Thyroxine Standard 0 μg/L,0.797
same,Absorbance (520 nm),[3]; Thyroxine Standard 25 μg/L,0.823
same,Absorbance (520 nm),[3]; Thyroxine Standard 75 μg/L,0.893
same,Absorbance (520 nm),[3]; Thyroxine Standard 125 μg/L,0.965
same,Absorbance (520 nm),[3]; Thyroxine Standard 200 μg/L,1.078
same,pH dependence of the dissociation of iodothyronine from serum proteins,"[4]; over the range pH 6.0-8.0, 2.0 mM",independent of pH
same,Percent Dissociated,[4]; pH 6.0,84%
same,Percent Dissociated,[4]; pH 6.5,84%
same,Percent Dissociated,[4]; pH 7.0,86%
same,Percent Dissociated,[4]; pH 7.5,85%
same,Percent Dissociated,[4]; pH 8.0,83%
